Data on 24 molecules can be found in US20250115583A1, “BICYCLIC INDAZOLE GLUCOCORTICOID RECEPTOR ANTAGONISTS” (Corcept Therapeutics Incorporated, priority 2021, published 2025).

In general, Ki refers to a measure of affinity in units of concentration, obtained from inhibition or displacement. High values mean weaker binding, low ones tighter binding.

For this test, the target named is glucocorticoid receptor (Homo sapiens (Human), UniProt P04150). The experiment in a line: HepG2 TAT assay: inhibition of dexamethasone-induced tyrosine aminotransferase (TAT) activity. It is filed as cell-based. To be noted: HepG2 cells, challenge of 100 nM dexamethasone, 18-24 hr; IC50 converted to Ki by Cheng and Prusoff equation. Here is the method:
Glucocorticoid mediated activation of TAT occurs by transactivation of glucocorticoid response elements in the TAT promoter by glucocorticoid receptor-agonist complex.
HepG2 cells were cultured using MEME media supplemented with 10% (v/v) foetal bovine serum; 2 mM L-glutamine and 1% (v/v) NEAA at 37° C., 5%/95% (v/v) CO2/air.
Compounds were serially half log diluted in 100% (v/v) dimethylsulphoxide from a 10 mM stock.
HepG2 cells were then lysed with 30 μl of cell lysis buffer containing a protease inhibitor cocktail for 15 minutes at 4° C. […] After 2 hours incubation at 37° C. the reaction was terminated by the addition of 15 μl of 10M aqueous potassium hydroxide solution, and the plates incubated for a further 30 minutes at 37° C.
[compound] and fitting the data to a 4 parameter logistic equation.

Sequence of glucocorticoid receptor (P04150 whole entry): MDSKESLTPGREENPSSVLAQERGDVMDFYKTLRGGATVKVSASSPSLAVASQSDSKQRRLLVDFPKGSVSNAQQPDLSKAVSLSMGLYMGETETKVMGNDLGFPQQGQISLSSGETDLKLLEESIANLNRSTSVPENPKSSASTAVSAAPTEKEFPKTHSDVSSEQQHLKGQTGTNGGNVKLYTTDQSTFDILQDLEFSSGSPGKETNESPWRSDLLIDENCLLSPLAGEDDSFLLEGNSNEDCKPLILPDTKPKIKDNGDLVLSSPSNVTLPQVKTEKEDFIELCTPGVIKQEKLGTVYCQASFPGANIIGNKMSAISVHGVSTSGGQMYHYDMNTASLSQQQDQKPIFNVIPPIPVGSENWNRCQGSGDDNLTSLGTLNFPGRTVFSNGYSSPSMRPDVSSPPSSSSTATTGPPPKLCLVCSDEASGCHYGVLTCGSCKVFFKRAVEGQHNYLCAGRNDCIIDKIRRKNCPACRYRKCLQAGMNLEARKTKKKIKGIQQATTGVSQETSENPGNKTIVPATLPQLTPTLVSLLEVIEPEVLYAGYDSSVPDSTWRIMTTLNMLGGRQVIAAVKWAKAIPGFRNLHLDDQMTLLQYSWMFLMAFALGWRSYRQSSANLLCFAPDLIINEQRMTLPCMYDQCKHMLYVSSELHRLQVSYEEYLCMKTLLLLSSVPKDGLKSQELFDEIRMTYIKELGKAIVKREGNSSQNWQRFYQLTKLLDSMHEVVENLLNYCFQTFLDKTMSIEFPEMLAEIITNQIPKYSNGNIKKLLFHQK

For the molecule `CC(=O)N1CC2CC(Oc3ccccc3)CC2(c2cc3cnn(-c4ccc(F)cc4)c3cc2C)C1` (stereo not drawn) [Example 40], affinity was put at a Ki of 420 nM.
The value for `Cc1cc2c(cnn2-c2ccc(F)cc2)cc1[C@]12CN(S(=O)(=O)c3cn(C)nn3)C[C@H]1[C@@H]2c1ccccc1` [Example 97] was 32 nM; that for `Cc1cc2c(cnn2-c2ccc(F)cc2)cc1[C@]12CN(S(=O)(=O)c3cnn(C)n3)C[C@H]1[C@@H]2C(=O)Nc1ccc(F)cn1` (stereo in doubt) [Example 57, 1-(1-(4-fluorophenyl)-6-methyl-1H-indazol-5-yl)-N-(5-fluoropyridin-2-yl)-3-((2-methyl-2H-1,2,3-triazol-4-yl)sulfonyl)-3-azabicyclo[3.1.0]hexane-6-carboxamide] was 190 nM; that for `Cc1cc2c(cnn2-c2ccc(F)cc2)cc1[C@@]12CN(S(=O)(=O)C(C)C)C[C@@H]1[C@H]2c1ccccc1` [Example 101] was 41 nM.
In the case of `CO[C@@]1(c2ccccc2)C[C@H]2CN(S(=O)(=O)C3CC3)C[C@@]2(c2cc3cnn(-c4ccc(F)cc4)c3cc2C)C1` [Example 24] it was 32 nM; in that of “5-(6-((4,4-difluoropiperidin-1-yl)methyl)-3-((2-methyl-2H-1,2,3-triazol-4-yl)sulfonyl)-3-azabicyclo[3.1.0]hexan-1-yl)-1-(4-fluorophenyl)-6-methyl-1H-indazole [Example 181]”, 250 nM.
In turn, `CO[C@@]1(c2ccccc2)C[C@H]2CN(S(=O)(=O)c3cnn(C)n3)C[C@@]2(c2cc3cnn(-c4ccc(F)cc4)c3cc2C)C1` (stereo in doubt) [Example 19, 1-(4-fluorophenyl)-5-(5-methoxy-2-((2-methyl-2H-1,2,3-triazol-4-yl)sulfonyl)-5-phenylhexahydrocyclopenta[c]pyrrol-3a(1H)-yl)-6-methyl-1H-indazole] returned an inhibition constant (Ki) of 47 nM.
In the case of `Cc1cc2c(cnn2-c2ccc(F)cc2)cc1C12CC(Oc3ccccc3)CC1CN(S(C)(=O)=O)C2` (stereo not drawn) [Example 38] it was 97 nM; in that of `Cc1cc2c(cnn2-c2ccc(F)cc2)cc1[C@@]12CN(C(=O)c3cccc(C#N)n3)C[C@@H]1[C@H]2c1ccccc1` (stereo in doubt) [Example 164, 6-(1-(1-(4-fluorophenyl)-6-methyl-1H-indazol-5-yl)-6-phenyl-3-azabicyclo[3.1.0]hexane-3-carbonyl)picolinonitrile], 7.2 nM.
In the case of `Cc1cc2c(cnn2-c2ccc(F)cc2)cc1[C@@]12CN(C(=O)c3ncccc3F)C[C@@H]1[C@H]2c1ccccc1` (stereo in doubt) [Example 156, (1-(1-(4-fluorophenyl)-6-methyl-1H-indazol-5-yl)-6-phenyl-3-azabicyclo[3.1.0]hexan-3-yl)(3-fluoropyridin-2-yl)methanone] it was 20 nM; in that of `Cc1ccc(C(=O)N2C[C@@H]3[C@@H](c4ccccc4)[C@]3(c3cc4cnn(-c5ccc(F)cc5)c4cc3C)C2)nc1` (single isomer, unassigned) [Example 151, (1-(1-(4-fluorophenyl)-6-methyl-1H-indazol-5-yl)-6-phenyl-3-azabicyclo[3.1.0]hexan-3-yl)(5-methylpyridin-2-yl)methanone], 28 nM; in that of `Cc1cc2c(cnn2-c2ccc(F)cc2)cc1C12CN(S(=O)(=O)c3cnn(C)n3)CC1C2COc1ccccn1` (stereo not drawn) [Example 50, 1-(4-fluorophenyl)-6-methyl-5-(3-((2-methyl-2H-1,2,3-triazol-4-yl)sulfonyl)-6-((pyridin-2-yloxy)methyl)-3-azabicyclo[3.1.0]hexan-1-yl)-1H-indazole], 680 nM.
`Cc1cc2c(cnn2-c2ccc(F)cc2)cc1[C@@]12CN(C(=O)c3ccc(C(F)(F)F)cn3)C[C@@H]1[C@H]2c1ccccc1` (stereo in doubt) [Example 168, (1-(1-(4-fluorophenyl)-6-methyl-1H-indazol-5-yl)-6-phenyl-3-azabicyclo[3.1.0]hexan-3-yl)(5-(trifluoromethyl)pyridin-2-yl)methanone] displayed a Ki of 39 nM. Compared with the last molecule, the Ki is about 17-fold lower.
In the case of `Cc1cnc(C(=O)N2C[C@@H]3[C@@H](c4ccccc4)[C@]3(c3cc4cnn(-c5ccc(F)cc5)c4cc3C)C2)s1` (stereo in doubt) [Example 176, (1-(1-(4-fluorophenyl)-6-methyl-1H-indazol-5-yl)-6-phenyl-3-azabicyclo[3.1.0]hexan-3-yl)(5-methylthiazol-2-yl)methanone] it was 45 nM.
`Cc1cc2c(cnn2-c2ccc(F)cc2)cc1[C@@]12CN(C(=O)c3ccccc3C#N)C[C@@H]1[C@H]2c1ccccc1` (single isomer, unassigned) [Example 130, 2-(1-(1-(4-fluorophenyl)-6-methyl-1H-indazol-5-yl)-6-phenyl-3-azabicyclo[3.1.0]hexane-3-carbonyl)benzonitrile] showed a Ki of 5.7 nM.
In the case of `Cc1cc2c(cnn2-c2ccc(F)cc2)cc1[C@@]12CN(C(=O)c3nccs3)C[C@@H]1[C@H]2c1ccccc1` (stereo in doubt) [Example 158, (1-(1-(4-fluorophenyl)-6-methyl-1H-indazol-5-yl)-6-phenyl-3-azabicyclo[3.1.0]hexan-3-yl)(thiazol-2-yl)methanone] it was 12 nM.
In the case of `Cc1cc2c(cnn2-c2ccc(F)cc2)cc1[C@@]12CN(S(=O)(=O)CC(C)C)C[C@@H]1[C@H]2c1ccccc1` [Example 104] it was 30 nM; in that of `Cc1cc2c(cnn2-c2ccc(F)cc2)cc1[C@@]12CN(C(=O)c3ncccc3C#N)C[C@@H]1[C@H]2c1ccccc1` (single isomer, unassigned) [Example 155, 2-(1-(1-(4-fluorophenyl)-6-methyl-1H-indazol-5-yl)-6-phenyl-3-azabicyclo[3.1.0]hexane-3-carbonyl)nicotinonitrile], 19 nM.
The value for `CO[C@@]1(c2ccccc2)C[C@H]2CN(S(=O)(=O)c3cnn(C)c3)C[C@@]2(c2cc3cnn(-c4ccc(F)cc4)c3cc2C)C1` [Example 6, 1-(4-fluorophenyl)-5-((3aS,5S,6aR)-5-methoxy-2-((1-methyl-1H-pyrazol-4-yl)sulfonyl)-5-phenylhexahydrocyclopenta[c]pyrrol-3a(1H)-yl)-6-methyl-1H-indazole] was 44 nM.
The molecule `COCCn1cc(S(=O)(=O)N2C[C@H]3[C@H](c4ccccc4)[C@@]3(c3cc4cnn(-c5ccc(F)cc5)c4cc3C)C2)cn1` [Example 79] displayed a Ki of 33 nM.
In turn, `CC(=O)N1C[C@H]2[C@H](C(=O)Nc3ccc(F)cn3)[C@@]2(c2cc3cnn(-c4ccc(F)cc4)c3cc2C)C1` (stereo in doubt) [Example 68, 3-acetyl-1-(1-(4-fluorophenyl)-6-methyl-1H-indazol-5-yl)-N-(5-fluoropyridin-2-yl)-3-azabicyclo[3.1.0]hexane-6-carboxamide] yielded an inhibition constant Ki of 90 nM.
The value for `Cc1cc2c(cnn2-c2ccc(F)cc2)cc1C12CC(Oc3ccccn3)CC1CN(S(C)(=O)=O)C2` (stereo not drawn) [Example 41] was 110 nM; that for `Cc1cc2c(cnn2-c2ccc(F)cc2)cc1C12CN(S(=O)(=O)c3cnn(C)c3)CC1CC(O)(c1nccs1)C2` (stereo not drawn) [Example 2, 3a-(1-(4-fluorophenyl)-6-methyl-1H-indazol-5-yl)-2-((1-methyl-1H-pyrazol-4-yl)sulfonyl)-5-(thiazol-2-yl)octahydrocyclopenta[c]pyrrol-5-ol] was 490 nM; that for `COC1(c2ccccc2)CC2CN(S(=O)(=O)C3(C)CC3)CC2(c2cc3cnn(-c4ccc(F)cc4)c3cc2C)C1` (stereo not drawn) [Example 28] was 32 nM.
